{"source": "ChEMBL document CHEMBL3351836", "about": "“Inhibition of carbonic anhydrase isoforms I, II, IX and XII with novel Schiff bases: identification of selective inhibitors for the tumor-associated isoforms over the cytosolic ones” (Bioorg Med Chem, 2014)"}
{"target": "Carbonic anhydrase 9 (Homo sapiens, UniProt Q16790)", "experiment": "Inhibition of human CA-9 after 15 mins by stopped-flow CO2 hydration method", "units": {"Ki": "nM"}}
{"smiles": "NS(=O)(=O)c1ccc(/N=C/c2ccc(-c3ccccc3)cc2)c(F)c1", "Ki": 113}
{"smiles": "NS(=O)(=O)c1ccc(CC/N=C/c2c(F)c(F)cc(F)c2F)cc1", "Ki": 213}
{"smiles": "NS(=O)(=O)c1ccc(/N=C/c2ccc(-c3ccccn3)cc2)cc1", "Ki": 162}
{"smiles": "CSc1ccc(/C=N/CCc2ccc(S(N)(=O)=O)cc2)cc1", "Ki": 23.6}
{"smiles": "NS(=O)(=O)c1ccc(CC/N=C/c2ccc(S(=O)(=O)O)o2)cc1", "Ki": 193}
{"smiles": "COc1ccc(/C=N/CCc2ccc(S(N)(=O)=O)cc2)c(O)c1", "Ki": 1870}
{"smiles": "NS(=O)(=O)c1ccc(/N=C/c2ccc(Br)cc2O)cc1", "Ki": 28.1}
{"smiles": "NS(=O)(=O)c1ccc(CC/N=C/c2ccc(Br)cc2O)cc1", "Ki": 106}
{"smiles": "NS(=O)(=O)c1ccc(CC/N=C/c2c[nH]c3ccc(Br)cc23)cc1", "Ki": 1880}
{"smiles": "NS(=O)(=O)c1ccc(CC/N=C/c2ccc(-c3ccccn3)cc2)cc1", "Ki": 27.9}
{"smiles": "COc1cc([N+](=O)[O-])ccc1/C=N/CCc1ccc(S(N)(=O)=O)cc1", "Ki": 154}
{"smiles": "NS(=O)(=O)c1ccc(/N=C/c2csc3ccccc23)cc1", "Ki": 197}
{"smiles": "NS(=O)(=O)c1ccc(CC/N=C/c2ccc(-c3ccccc3)cc2)cc1", "Ki": 244}
{"smiles": "NS(=O)(=O)c1ccc(CC/N=C/c2cccc(Br)c2O)cc1", "Ki": 251}
{"smiles": "NS(=O)(=O)c1ccc(/N=C/c2ccco2)c(F)c1", "Ki": 165}
{"smiles": "N#Cc1ccc(/C=N/CCc2ccc(S(N)(=O)=O)cc2)cc1", "Ki": 18.5}
